Reference: patent US11414402B2, “Sulfonamide-substituted cyanopyrrolidines with activity as DUB inhibitors” (MISSION THERAPEUTICS LIMITED, priority 2017, dated 2022)

What follows are compounds tested against USP30 (Homo sapiens (Human), UniProt Q70CQ3) (assay: USP30 biochemical IC50 assay (fluorescence polarisation)). Conditions: USP30 CD (57-517); 30 min preincubation at room temp; TAMRA-peptide-ubiquitin substrate 50 nM; read after 2-hour incubation; read-out: IC50 range.
Sequence of USP30 (Q70CQ3 57-517): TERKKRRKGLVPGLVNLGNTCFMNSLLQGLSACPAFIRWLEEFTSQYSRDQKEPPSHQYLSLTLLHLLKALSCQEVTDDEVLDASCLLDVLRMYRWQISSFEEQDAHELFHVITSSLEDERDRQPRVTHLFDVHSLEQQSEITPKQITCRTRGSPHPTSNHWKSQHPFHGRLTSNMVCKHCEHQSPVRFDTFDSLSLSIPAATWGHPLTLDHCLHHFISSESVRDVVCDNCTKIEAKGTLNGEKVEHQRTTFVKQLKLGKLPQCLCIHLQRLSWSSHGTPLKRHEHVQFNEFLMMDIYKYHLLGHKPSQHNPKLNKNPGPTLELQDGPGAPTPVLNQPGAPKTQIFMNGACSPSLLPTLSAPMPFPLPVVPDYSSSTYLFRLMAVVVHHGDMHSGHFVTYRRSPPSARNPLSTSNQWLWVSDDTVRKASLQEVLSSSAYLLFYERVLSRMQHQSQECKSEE
Experimental: A typical 8-point dilution series would be 100, 30, 10, 3, 1, 0.3, 0.1, 0.03 μM final. […] Either 1 μl of 50% DMSO or diluted compound was added to the plate. USP30 was diluted in reaction buffer (40 mM Tris, pH 7.5, 0.005% Tween 20, 0.5 mg/ml BSA, 5 mM beta-mercaptoethanol) to the equivalent of 0.05 μl/well and 10 μl of diluted USP30 was added to the compound. Enzyme and compound were incubated for 30 min at room temp. Reactions were initiated by the addition of 50 nM of TAMRA labelled peptide linked to ubiquitin via an iso-peptide bond as fluorescence polarisation substrate. Reactions were read immediately after addition of substrate and following a 2-hour incubation at room temperature. Readings were performed on a Pherastar Plus (BMG Labtech). λ Excitation 540 nm; λ Emission 590 nm.
For `Cc1ccc(S(=O)(=O)N2CCO[C@@H]3CN(C#N)C[C@H]32)cc1` (racemic) [Example 22, rac-(4aR,7aR)-4-tosylhexahydropyrrolo[3,4-b][1,4]oxazine-6(2H)-carbonitrile], the IC50 was 10 to 100 µM.
Work on `Cc1ccc(CS(=O)(=O)N2CCO[C@H]3CN(C#N)C[C@H]32)cc1` (racemic) [Example 23, rac-(4aR,7aS)-4-(4-methylbenzyl)sulfonyl)hexahydropyrrolo[3,4-b][1,4]oxazine-6(2H)-carbonitrile] yielded an IC50 of 0.1 to 1 µM.
`N#CN1CC[C@@H](NS(=O)(=O)c2ccccc2)C1` [Example 7, (R)-N-(1-cyanopyrrolidin-3-yl)benzenesulfonamide] was tested, and the IC50 was 1 to 10 µM.
`CN1CCN(c2ccc(S(=O)(=O)NC3CCN(C#N)C3)cc2)CC1` (stereo not drawn) [Example 10, N-(1-cyanopyrrolidin-3-yl)-4-(4-methylpiperazin-1-yl)benzenesulfonamide] gave an IC50 of 1 to 10 µM.
For `Cc1ccc(F)cc1S(=O)(=O)NC1CCN(C#N)C1` (stereo not drawn) [Example 17, N-(1-cyanopyrrolidin-3-yl)-5-fluoro-2-methylbenzenesulfonamide], the IC50 was 1 to 10 µM.
`N#CN1C[C@H]2CCN(S(=O)(=O)c3ccc(-c4cccnc4)cc3)[C@H]2C1` [Example 21, (3aR,6aR)-1-((4-(pyridin-3-yl)phenyl)sulfonyl)hexahydropyrrolo[3,4-b]pyrrole-5(1H)-carbonitrile] was tested, and the IC50 was 0.1 to 1 µM.
Compound `N#CN1CCC(S(=O)(=O)N2CCN(c3ccc(F)cc3)CC2)C1` (stereo not drawn) [Example 27, 3-((4-(4-fluorophenyl)piperazin-1-yl)sulfonyl)pyrrolidine-1-carbonitrile] has an IC50 of 10 to 100 µM.
In the case of `N#CN1CCC(S(=O)(=O)N2CCN(c3ccccn3)CC2)C1` (stereo not drawn) [Example 28], the IC50 is reported as 0.1 to 1 µM.
`N#CN1CCC(S(=O)(=O)N2CCN(c3ncccn3)CC2)C1` (stereo not drawn) [Example 29, 3-((4-(pyrimidin-2-yl)piperazin-1-yl)sulfonyl)pyrrolidine-1-carbonitrile] gave an IC50 of 1 to 10 µM.
Work on `N#CN1CCC(S(=O)(=O)N2CCC(c3ccc(Cl)cc3)CC2)C1` (stereo not drawn) [Example 30, 3-((4-(4-chlorophenyl)piperidin-1-yl)sulfonyl)pyrrolidine-1-carbonitrile] yielded an IC50 of under 0.1 µM.
`N#CN1CCC(S(=O)(=O)N2CCC(Cc3ccccc3)CC2)C1` (stereo not drawn) [Example 33, 3-((4-benzylpiperidin-1-yl)sulfonyl)pyrrolidine-1-carbonitrile] gave an IC50 of 0.1 to 1 µM.
With `N#CN1CCC(S(=O)(=O)N2CC(c3ccc(Cl)cc3)C2)C1` (stereo not drawn) [Example 34, 3-((3-(4-chlorophenyl)azetidin-1-yl)sulfonyl)pyrrolidine-1-carbonitrile] the IC50 was 0.1 to 1 µM.
With `N#CN1CC[C@H](S(=O)(=O)N2CC(c3ccc(Cl)cc3)C2)C1` [Example 35, (S)-3-((3-(4-chlorophenyl)azetidin-1-yl)sulfonyl)pyrrolidine-1-carbonitrile] the IC50 was 0.1 to 1 µM.
Work on `N#CN1CC[C@@H](S(=O)(=O)N2CC(c3ccc(Cl)cc3)C2)C1` [Example 36, (R)-3-((3-(4-chlorophenyl)azetidin-1-yl)sulfonyl)pyrrolidine-1-carbonitrile] yielded an IC50 of 0.1 to 1 µM.
With `N#CN1CCC(S(=O)(=O)N2CC(Oc3ccccc3)C2)C1` (stereo not drawn) [Example 37, 3-((3-phenoxyazetidin-1-yl)sulfonyl)pyrrolidine-1-carbonitrile] the IC50 was 10 to 100 µM.
